Data on one molecule can be found in patent publication US20060014730A1, “Ansamycin formulations and methods for producing and using same” (Conforma Therapeutics Corporation, priority 2002, published 2006).

Broadly, the Cmax is the maximum level reached in the sampled fluid or tissue.

Like-named read-outs stand apart in the source and are kept apart here.

Series [1] is described as follows: Drug concentration achieved in the emulsion. The class given is physicochemical.
Series [2] relates to adult patients with advanced solid tumors. The following applies: daily 1-hour infusion for 5 days every three weeks; cited from earlier work.
For series [3] the following is noted: cited from earlier work; for Cmax: human, in vivo.
Series [4] can be described thus: Dissolution of 17-AAG in Phospholipon in Miglyol solution without ethanol. The class given is physicochemical. The note with it: lower melting point form crystallized from isopropanol rather than ethanol; room temperature. The source says: Alternatively, 17-AAG can be brought […], adding to this the drug, e.g., 17-AAG, and mixing, e.g., by stirring and/or sonication.

[5] abbreviates: adult patients, daily 1-hour infusion for 5 days every three weeks.

As for `C=CCNC1=C2C[C@@H](C)C[C@H](OC)[C@H](O)[C@@H](C)/C=C(\C)[C@H](OC(N)=O)[C@@H](OC)/C=C\C=C(/C)C(=O)NC(=CC1=O)C2=O` [Compound 17-AAG, 17-allylamino-geldanamycin], in series [1] (oil phase alone), the “concentration achieved in the oil phase alone” value lay in the range of 20000 to 30000 µg/mL. The same molecule showed a concentration achieved overall in series [1] (whole emulsion) of at most 3000 µg/mL. For the same molecule, the “maximum tolerated dose (MTD)” value in series [2] is 40 mg/m^2. Further, in series [3] (setting [5]), the “clearance (mean+/-SD)” value is 41.0 ± 13.5 L/h, the “steady-state volume (mean+/-SD)” value is recorded as 86.6+/−34.6 L/m^2 and the “terminal half-life (mean+/-SD)” value was 2.5 ± 0.5 h. The Cmax in series [3] (40 mg/m2) was 1860 nM. Besides, in series [3] (56 mg/m2), the Cmax was 3170 nM. For the same molecule, in series [4], the “dissolution into the Phospholipon in Miglyol solution” value is on record as “more readily can be dissolved”.
